# Legend:
# blastocysts = assay: ATP and citrate levels in blastocysts cultured from two-cell embryos with DHEA; assay type: cell-based, mouse
# Experimental: Mice were superovulated and mated with males of known fertility. Forty-five hours after injection with hCG, the oviducts were removed. Two-cell embryos were collected by flushing the oviducts with human tubal fluid media (HTF) with 0.25% BSA. Embryos were cultured in HTF with BSA and either DMSO, 10 μM DHEA or 100 μM DHEA for 72 hours. In vitro cultured blastocysts were transferred to 2.5 days postcoitus (dpc) pseudopregnant ICR females. Resulting embryos and placentas were collected at 14.5 dpc and fixed with Bouin's solution, embedded in paraffin and sectioned.
# (§1) Denuded oocytes or cultured blastocysts were frozen on a glass slide with liquid nitrogen and dried overnight at −35° C. under vacuum. Individual oocytes or blastocysts were extracted in nanoliter volume under oil. Assays were designed to measure ATP, citrate and G6PDH by linking with NAD/NADH or NADP/NADPH which are enzymatically amplified in a cycling reaction allowing products to be measured by fluorometry.
# FVB/NJ mice [1] = assay: Ovulation rate after PMSG and hCG in DHEA-fed mice; assay type: in vivo, mouse
# Description: (§2) Female FVB/NJ mice were obtained from Jackson Laboratories (Bar Harbor, Me., USA). Regular rodent chow was supplemented with DHEA at 0.01%, 0.1% and 0.6% w/w. Three-week-old mice had access to food and water ad libitum. Mice were fed control or DHEA-supplemented chow for two weeks. The Animal Studies Committee at Washington University School of Medicine reviewed and approved all animal experiments. Animals were maintained according to the Guide for the Care and Use of Laboratory Animals provided by the Institute for Laboratory Animal Research.
# (§3) COCs were collected following superovulation with PMSG. Ovaries were removed and placed in M2 media (Sigma, St. Louis, Mo., USA). COCs were obtained by rupture of antral follicles with a syringe and needle. To collect denuded germinal vesicle (GV) oocytes, the cumulus cells were removed by gentle pipetting. The oviducts were removed from PMSG- and hCG-primed mice. The ampulla of the oviduct was punctured to release the clutch of ovulated oocytes 24 hr after hCG.
# ICR female mice = assay: Intrauterine DHEA or 6-AN pellet and pregnancy outcome; assay type: in vivo, mouse
# Experimental: ICR female mice had either placebo (n=26), DHEA (1.5 mg/60 days)(n=20), or 6-AN pellets (150, 15, 1.5 mcg/60 days)(n=24) placed into the uterine horn after index delivery. Females were then mated and litter size was measured over the following 120 days post pellet. Mice were housed according to the Institutional Animal Care and use Committee and NIH guidelines. Day to first litter, number of litters, number of pups, average pups/litter were recorded. Serum DHEA levels were quantified (Alpco, Salem, N.H.). All pellets (placebo, DHEA, 6-AN) were custom-formulated (Innovative Research, Inc).
# ESC-T cells = assay: EdU incorporation proliferation assay; assay type: cell-based, human
# Description: Other groups have shown that DHEA has anti-proliferative effects in a number of cell-lines and tissues. Thus, it was hypothesized that perhaps the PPP inhibitors prevent the proliferation of ESC-Ts and that this is an additional effect, independent of their role in decidualization inhibition. In a human uterus the stromal cells go through a cyclical oscillation between proliferation and differentiation, determined by the hormonal milieu. ESC-Ts in vitro remain in the proliferative state until they are exposed to differentiation media, which causes the cells to halt cell division and enter differentiation. Proliferation of ESC-T cells were monitored by EdU incorporation in vitro, which indicates entry into the S-phase of the cell cycle, in the absence of the differentiation hormones.
# Following 60 hr of the treatment indicated in the experiment, EdU was added to the culture medium at a concentration of […]. Cells were harvested and stained using the Click-iT EdU Flow Cytometry Kit (Invitrogen). Quantitative data were collected using a BD FACSCalibur flow cytometer (Becton Dickinson, San Jose, Calif.) and analyzed with FlowJo software (TreeSTar, Inc., Ashland, Oreg.). For confocal microscopy, the cells were stained on coverslips using the same protocol. Nuclei were counterstained with TOPRO-iodide (Molecular probes) at a 1:500 dilution. Cells were mounted on slides using Vectashield (Vector Labs) and visualized using a Nikon C1 microscope.
# FVB/NJ mice [2] = assay: Pregnancy rates / litters of DHEA-fed mice; assay type: in vivo, mouse
# Experimental: (§4) To determine the reversibility of DHEA, mice were fed the two higher DHEA diets that prevented normal estrous cycles for two weeks followed by regular rodent chow for two weeks. Estrous cycles and pregnancy rates were recorded.
# as §2
# Control and DHEA-fed mice were mated with males of known fertility until three litters were delivered or up to 12 weeks.
# FVB/NJ mice [3] = assay: Estrous cycles by vaginal smears in DHEA-fed mice; assay type: in vivo, mouse
# Experimental: as §4, §2
# Vaginal smears were performed daily starting at eight weeks of age, after puberty, and establishment of regular estrous cycles. Vaginal cells were collected in 10 μl of phosphate buffered saline (PBS) and evaluated for stage of estrous by one investigator by light microscopy.
# FVB/NJ mice [4] = assay: Serum hormone concentration in DHEA-fed mice (ELISA); assay type: in vivo, mouse
# Description: as §2
# Control and DHEA-fed mice were superovulated with 10 IU pregnant mare serum gonadotropin (PMSG) by i.p. injection. DHEA, estradiol and testosterone serum concentrations were measured 48 hours later. For progesterone concentrations, mice were given an i.p. injection of 10 IU hCG 48 hours after PMSG and blood was collected 24 hours later. Mice were anesthetized with 50 μl ketamine and xylazine (1:1) and blood was collected by cardiac puncture. Serum was separated by centrifugation and stored at −20° C. ELISA assays were used to determine serum hormone concentrations (Alpco, Salem, N.H., USA).
# G6PDH = target: T1, G6PDH (Mus musculus, UniProt Q00612); assay: G6PDH enzyme activity in single oocytes of DHEA-fed mice; assay type: in vivo
# T1 construct: Individual oocytes or blastocysts were extracted in nanoliter volume under oil; from tissue; host or cells: denuded germinal vesicle oocytes of mice
# Description: as §3, §1
# FVB/NJ mice [5] = assay: Ovarian histology and follicle counts in DHEA-fed mice; assay type: in vivo, mouse; settings: 0.6% DHEA diet
# Description: as §2
# For histological evaluation, one ovary from five mice in each group was fixed in Bouin's solution, transferred to 70% ethanol then embedded in paraffin and serial sectioned at 10 microns. Every tenth section was kept and stained with hematoxylin and eosin. Follicles with visible nuclei were classified as primordial, primary, secondary or antral. Corpora lutea were also counted. Follicle counts from each classification were summed for each mouse.
# T1 sequence (Q00612 whole entry): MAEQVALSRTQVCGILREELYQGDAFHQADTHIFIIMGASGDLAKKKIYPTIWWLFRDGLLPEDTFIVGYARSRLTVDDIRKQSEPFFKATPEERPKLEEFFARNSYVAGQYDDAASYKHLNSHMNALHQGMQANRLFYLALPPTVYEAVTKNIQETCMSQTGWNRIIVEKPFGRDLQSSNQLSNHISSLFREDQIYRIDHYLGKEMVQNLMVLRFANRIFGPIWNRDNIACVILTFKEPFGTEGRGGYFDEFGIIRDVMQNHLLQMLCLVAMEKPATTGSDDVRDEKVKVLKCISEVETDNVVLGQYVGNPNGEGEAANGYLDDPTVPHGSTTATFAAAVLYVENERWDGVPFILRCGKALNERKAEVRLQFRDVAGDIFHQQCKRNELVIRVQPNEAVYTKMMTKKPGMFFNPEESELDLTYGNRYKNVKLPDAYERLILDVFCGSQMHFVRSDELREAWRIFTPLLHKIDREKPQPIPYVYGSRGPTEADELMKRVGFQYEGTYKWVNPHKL
structure (smiles),measurement,setting,value
"C[C@]12CC[C@H](O)CC1=CC[C@@H]1[C@@H]2CC[C@]2(C)C(=O)CC[C@@H]12 [DHEA, dehydroepiandrosterone]",Citrate levels of control,blastocysts; 10 μM DHEA,86%
same,Citrate levels of control,blastocysts; 100 μM DHEA,68%
same,Number of ovulated oocytes,FVB/NJ mice [1]; 0.01% DHEA diet,10.8±2.8
same,Number of ovulated oocytes,FVB/NJ mice [1]; 0.1% DHEA diet,15±1.9
same,Number of ovulated oocytes,FVB/NJ mice [1]; 0.6% DHEA diet,7.1±1.4
same,Mean serum levels of DHEA,"ICR female mice; DHEA pellet group, controls 0.265",0.512 ng/mL
same,Average pups/litter,"ICR female mice; DHEA pellet, after 60 days, control 12.3",10.3 pups/litter
same,Reduction of average pups/litter size,"ICR female mice; DHEA pellet, first litter after placement of the pellet",55%
same,Average pups/litter,"ICR female mice; DHEA pellet, first litter, control 13.0",5.9 pups/litter
same,Average time to first litter,"ICR female mice; intrauterine pellet: DHEA 1.5 mg/60 days, 6-AN 150, 15, 1.5 mcg/60 days, controls 27 days",34 days
same,EdU-positive nuclei vs DMSO control,"ESC-T cells; 100 μM DHEA, 50 μM 6AN",drastic decrease
same,Proliferation by EdU geometric mean fluorescence intensity (flow cytometry),ESC-T cells; 4 independent experiments,decreases proliferation of ESC-Ts in a concentration dependent manner
same,Litters while on diet,FVB/NJ mice [2]; 0.01% DHEA diet,the litters were smaller than the controls
same,Litters while on diet,FVB/NJ mice [2]; 0.1% and 0.6% DHEA diet,did not deliver any pups
same,Estrous cycle length,"FVB/NJ mice [3]; 0.01% DHEA diet, after two weeks",approximately five days longer than controls
same,Estrous cycle stage,FVB/NJ mice [3]; 0.1% DHEA and 0.6% DHEA diet,remained in metestrus or diestrus for the entire evaluation period
same,Increase in DHEA serum levels,FVB/NJ mice [4]; 0.01% DHEA supplementation,1.9 fold
same,Serum DHEA,"FVB/NJ mice [4]; DHEA diets 0.01%, 0.1%, 0.6%, 48 hours after PMSG",elevated in the DHEA-fed mice in a dose-dependent fashion
same,G6PDH activity,G6PDH; 0.01% DHEA and 0.1% DHEA groups,decreased
same,"G6PDH activity, of normal",G6PDH; 0.1% DHEA diet,87%
same,Ovarian morphology,FVB/NJ mice [5],large cystic structures
